# Laboratory results reported in article PMC13114712, “The Influence of TDP1 Inhibitor Usnic Acid Derivative OL9-116 on the Effects of Topotecan in Human Cells” (Current Issues in Molecular Biology, 2026).
# Legend:
# [1] = target: T1, Tyrosyl-DNA phosphodiesterase 1 (TDP1) (Homo sapiens, UniProt Q9NUW8); test: real-time fluorimetric assay with FAM/BHQ1 oligonucleotide; V(S) kinetics; EMSA and fluorescence anisotropy show no DNA competition; format: biochemical
# T1 construct: TDP1 wild type (full-length, recombinant from E. coli, pLate31-TDP1)
# Δ148TDP1 = target: T2, Δ148TDP1 (Homo sapiens, UniProt Q9NUW8); test: real-time fluorimetric assay with FAM/BHQ1 oligonucleotide; format: biochemical
# T2 construct: gene TDP1; Δ148TDP1, truncated form lacking the first 148 N-terminal amino acid residues (recombinant from E. coli)
# TDP1 (wild type) = TDP1 (wild type) (Homo sapiens, UniProt Q9NUW8 1-608); test: EMSA; no inhibitor; 0.5 uM TDP1, 0.1 uM DNA; two complexes (1:1 and 2:1); 50 mM Tris-HCl pH 8.0, 50 mM NaCl, 7 mM beta-mercaptoethanol; EMSA 10 min at 4 C, 5% PAGE in 0.3x TBE; anisotropy temperature not stated; settings: protein: recombinant; label: 5'-(5,6)-FAM; single strand
# Sequence of TDP1 (wild type) (Q9NUW8 whole entry): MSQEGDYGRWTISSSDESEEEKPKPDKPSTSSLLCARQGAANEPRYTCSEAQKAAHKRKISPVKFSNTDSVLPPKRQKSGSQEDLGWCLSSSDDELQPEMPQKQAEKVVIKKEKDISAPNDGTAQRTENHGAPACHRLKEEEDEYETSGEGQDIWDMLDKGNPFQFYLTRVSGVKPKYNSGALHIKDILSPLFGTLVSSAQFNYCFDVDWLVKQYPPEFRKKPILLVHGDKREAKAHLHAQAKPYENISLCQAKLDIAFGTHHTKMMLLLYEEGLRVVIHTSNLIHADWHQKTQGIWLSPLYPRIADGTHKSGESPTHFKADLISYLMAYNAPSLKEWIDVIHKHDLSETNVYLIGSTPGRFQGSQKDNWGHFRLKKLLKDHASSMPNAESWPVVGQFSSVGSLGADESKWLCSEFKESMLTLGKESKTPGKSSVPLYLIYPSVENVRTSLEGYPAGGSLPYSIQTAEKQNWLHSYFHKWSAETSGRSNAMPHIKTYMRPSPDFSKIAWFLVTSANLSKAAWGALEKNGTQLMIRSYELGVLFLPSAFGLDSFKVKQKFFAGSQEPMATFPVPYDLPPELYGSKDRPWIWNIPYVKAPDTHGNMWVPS
# T1 sequence (Q9NUW8 whole entry): as above
# T2 sequence (Q9NUW8 149-608, stated change not applied): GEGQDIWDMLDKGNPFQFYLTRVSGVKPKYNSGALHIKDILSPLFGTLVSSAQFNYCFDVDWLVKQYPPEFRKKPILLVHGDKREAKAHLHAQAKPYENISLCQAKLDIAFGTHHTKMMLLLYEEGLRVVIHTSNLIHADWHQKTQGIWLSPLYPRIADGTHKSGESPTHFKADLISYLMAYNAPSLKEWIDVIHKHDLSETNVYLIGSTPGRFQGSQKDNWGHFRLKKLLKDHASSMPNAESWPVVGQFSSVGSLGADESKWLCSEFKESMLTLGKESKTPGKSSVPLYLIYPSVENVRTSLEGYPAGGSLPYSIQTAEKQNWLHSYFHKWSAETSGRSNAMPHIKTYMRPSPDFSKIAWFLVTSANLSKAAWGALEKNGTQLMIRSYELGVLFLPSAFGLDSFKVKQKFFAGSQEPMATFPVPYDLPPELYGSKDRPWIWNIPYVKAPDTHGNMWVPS
Molecule,IC50 [1],IC50 (Δ148TDP1),binding result (TDP1 (wild type))
CC(=O)c1c(O)c(C)c(O)c2c1OC1=CC(=O)C(=C(C)NCCCc3cc(C(C)(C)C)c(O)c(C(C)(C)C)c3)C(=O)C12C (stereo not drawn) [OL9-116],1400 ± 400 nM,3800 ± 800 nM,
AACGTCAGGGTCTTCC (ssDNA) [5'-FAM 16-mer oligonucleotide],,,binds
